Results on two compounds are retold here after patent US7396655B2, “Method for enhancing activity of luciferase with fluorescence activity” (Chisso Corporation, priority 2005, dated 2008).

“Also recorded” adds a separate entry of the source. Read-outs that look alike come from different tables or passages of the source.

The target in assay [1] is T1, Renilla reniformis luciferase (Renilla reniformis, UniProt P27652).
T1 construct: histidine tag (N); made in house; host or cells: E. coli Top10
T1 sequence (P27652 1-311): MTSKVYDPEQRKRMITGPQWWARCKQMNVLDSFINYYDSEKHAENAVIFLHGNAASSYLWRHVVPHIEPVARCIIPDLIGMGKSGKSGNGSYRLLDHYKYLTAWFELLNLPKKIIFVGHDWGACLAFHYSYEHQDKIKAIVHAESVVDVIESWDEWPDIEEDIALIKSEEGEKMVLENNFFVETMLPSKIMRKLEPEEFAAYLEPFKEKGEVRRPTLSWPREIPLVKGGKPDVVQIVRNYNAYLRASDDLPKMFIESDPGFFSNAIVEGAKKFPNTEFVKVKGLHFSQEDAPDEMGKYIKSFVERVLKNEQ
As to the kind of experiment: Control experiment: Renilla reniformis luciferase luminescence with imidazole. In kind it is biochemical. The note with it: increasing concentrations of imidazole. Here is the method:
Renilla reniformis luciferase, a monomeric luciferase (36 kDa) derived from Renilla reniformis, catalyzes oxidation of the substrate coelenterazine to trigger light emission.
50 mM Tris-HCl buffer (200 μl), pH 7.6, was pre-warmed at 25° C., to which the substrate coelenterazine (1 μg/μl) dissolved in ethanol was added. A light-emitting reaction was triggered by adding Renilla reniformis luciferase (1.2 μg). […] The measured values were represented as the maximum intensity (Imax) of luminescence activity.
As a control experiment, the same experiment was conducted using Renilla reniformis luciferase, which contains coelenterazine as luminescent substrate. […] That is, it was shown that the enhancing effect on luminescence activity by the addition of imidazole is specific for BFP-aq.

Assay [2] deals with T2, BFP-aq (Aequorea victoria, UniProt P07164). As to the kind of experiment: biochemical. More on the design: The recombinant apoaequorins encoded by piP-HE is composed of 191 amino acids, whose N-terminus starts from Ala-Asn-Ser-; made in house; host or cells: E. coli strain WA802. In kind it is biochemical. Here is the method:
Solutions of 50 mM Tris-HCl (pH 8.0), each containing various commercial organic compounds shown in Table 3, were prepared and pre-warmed at 25° C. The substrate coelenterazine (1 μg) was added to the solutions (200 μl) containing each of these compounds.

The target of assay [3] is T3, Renilla reniformis luciferase (recombinant, N-terminal histidine tag) (Renilla reniformis, UniProt P27652).
T3 sequence (P27652 1-311): T1 sequence (P27652 1-311)
As to the kind of experiment: Effect of imidazole on Renilla reniformis luciferase luminescence (control, FIG. 5). It is filed as biochemical. To be noted: increasing concentrations of imidazole (0.1 to 1000 mM), pH 8.0, coelenterazine substrate. As to the method: (§1) 50 mM Tris-HCl (pH 8.0) containing imidazole at various concentrations (0. 1, 0.3, 1, 3, 10, 30, 60, 100, 150, 200, 250, 300, 400, 500, 600, 700, 800, 900, and 1000 mM) was prepared and pre-warmed at 25° C. The substrate coelenterazine (1 μg) was added to each imidazole-containing solution (200 μl).
(§2) As a control experiment, the same experiment was conducted using Renilla reniformis luciferase, which contains coelenterazine as luminescent substrate.

Assay [4] has as its target T2, BFP-aq. To be noted: with vs without 150 mM imidazole.
Experimental: Then, luminescence activity was measured with the luminometer Luminescencer-PSN AB2200 (manufactured by Atto Co., Ltd.) for 60 seconds. Using the luminescence activity for the first 3 sec of the light-emitting reaction as the initial reaction rate, Km values were determined by the Lineweaver-Burk plot method.
For assay [5], the target named is T4, BFP-aq, luciferase with fluorescence activity derived from aequorin (recombinant apoaequorin, SEQ ID NO: 1 with N-terminal Val replaced by Ala-Asn-Ser); complex (Aequorea victoria, UniProt P02592).
T4 construct: The recombinant apoaequorins encoded by piP-HE is composed of 191 amino acids, whose N-terminus starts from Ala-Asn-Ser-; made in house; host or cells: E. coli strain WA802 (expression vector piP-HE)
T4 sequence (P02592 with tags, fused parts or gaps): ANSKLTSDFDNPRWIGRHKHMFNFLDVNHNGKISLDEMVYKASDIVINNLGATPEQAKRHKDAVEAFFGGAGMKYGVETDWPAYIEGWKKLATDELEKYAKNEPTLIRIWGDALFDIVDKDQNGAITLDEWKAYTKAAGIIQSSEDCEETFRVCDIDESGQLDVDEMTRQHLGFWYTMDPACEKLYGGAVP
In words: Light-emitting reaction rate of BFP-aq, Lineweaver-Burk plot (Table 6). In kind it is biochemical. To be noted: with or without 150 mM imidazole.

Assay [6] has as its target T2, BFP-aq. In kind it is biochemical. Also on record: The recombinant apoaequorins encoded by piP-HE is composed of 191 amino acids, whose N-terminus starts from Ala-Asn-Ser-; made in house; host or cells: E. coli strain WA802. The note with it: pH 8.0. Here is the method:
as §1, §2

The target of assay [7] is T4, BFP-aq, luciferase with fluorescence activity derived from aequorin (recombinant apoaequorin, SEQ ID NO: 1 with N-terminal Val replaced by Ala-Asn-Ser); complex. As to the kind of experiment: Optimal imidazole concentration for enhancing BFP-aq luminescence (FIG. 5). To be noted: pH 8.0, 25° C., coelenterazine substrate; compared with no imidazole. It is filed as biochemical. Here is the method: 50 mM Tris-HCl (pH 8.0) containing imidazole at various concentrations (0. 1, 0.3, 1, 3, 10, 30, 60, 100, 150, 200, 250, 300, 400, 500, 600, 700, 800, 900, and 1000 mM) was prepared and pre-warmed at 25° C. The substrate coelenterazine (1 μg) was added to each imidazole-containing solution (200 μl). […] Assuming that the maximum intensity activity (Imax) of BFP-aq luminescence activity in 50 mM Tris-HCl (pH 8.0) is 100%, the relative luminescence activity values are shown in FIG. 5.

The target is the same in assay [8]. As to the kind of experiment: Luminescence of BFP-aq with coelenterazine and analogs, with/without imidazole (Table 5). It is filed as biochemical. To be noted: without imidazole; pH 8.0; coelenterazine without imidazole = 100%. As to the method:
200 μl of this solution was placed in five vessels, to each of which 1 μg of the substrate coelenterazine (CTZ) and its four analogs: h-CTZ, cp-CTZ, hcp-CTZ, f-CTZ were added. […] Assuming that the maximum intensity activity (Imax) and initial velocity of BFP-aq luminescence activity in 50 mM Tris-HCl (pH 8.0) was 100%, the effect of the addition of imidazole on luminescence activity was examined.

Setting [9] is: pH 8, read-out: Luminescence activity (%) Imax.
[10] abbreviates: pH 8, read-out: Luminescence activity (%) Initial velocity.

Turning to `c1c[nH]cn1` [Imidazole], the “Effect on luminescence activity of Renilla reniformis luciferase” value in assay [1] was “remarkably inhibited”. In addition, in assay [2] (setting [9]), the activity at 30000 µM is 148% and the activity at 150000 µM turned out to be 199%. For the same compound, in assay [2] (setting [10]), the activity at 30000 µM was determined as 153% and the activity at 150000 µM was 205%. The “Enhancement of BFP-aq luminescence activity (Imax), in words” value in assay [2] (pH 8.0, Table 4 comparison) is “marked luminescence activity (Imax) occurs only when 150 mM imidazole was added”. For the same compound, the “Luminescence activity of Renilla reniformis luciferase with imidazole, in words” value in assay [3] is “remarkably inhibited with increasing concentrations of imidazole”. Besides, in assay [4], the “Change of Km values” is on record as “no marked changes” and the “Change of Vmax” value is “doubled”. Besides, in assay [5], the “Km change with imidazole, in words” value is reported as “no marked changes were found in the Km values” and the “Vmax change with imidazole, in words” value was “only Vmax was doubled in the system with imidazole”. In addition, the “Luminescence activity compared with the system without imidazole” value in assay [6] (150 mM imidazole) was “more than two-fold”. The “Effect on luminescence activity of BFP-aq” value in assay [6] (30 to 250 mM imidazole) is “enhanced”. The “Luminescence activity of BFP-aq with imidazole, in words” value in assay [7] is “enhanced at 30 to 250 mM imidazole; also recorded: more than two-fold of the luminescence activity”.

For `O=c1c(Cc2ccc(O)cc2)nc2c(CC3CCCC3)[nH]c(-c3ccc(O)cc3)cn1-2` [cp-Coelenterazine, cp-coelenterazine], the “Relative luminescence activity, Imax” value in assay [8] came out at 54%.
